Data published in US20230124720A1, “APPLICATION OF ACRIDINEDIONE COMPOUND IN PREPARATION OF ANTI-DIABETIC DRUGS” (THE FOURTH MILITARY MEDICAL UNIVERSITY, priority 2020, published 2023).

Legend:
[1] = Tissue distribution kinetics in SD rats (LC-MS/MS); type: in vivo, rat; settings: gavage 10 mg/kg
Procedure: 40 healthy male SD rats, weighing 200-220 g, were housed adaptively for three days and fasted for 12 h prior to the experiment. All rats were randomly divided into 5 groups, 8 for each group. Each group of rats was gavaged with the ADD-16 solution (10 mg/kg), anesthetized at 10, 30, 60, 240, 480 min after administration, and sacrificed by exsanguination of the abdominal aorta, respectively. Each group of rats was sacrificed by dissection to collect tissues such as heart, liver, spleen, lung, kidney, brain, and islets. After washing the tissue samples with physiological saline to clean surface blood, the tissue samples were blotted with filter paper to dry surface moisture, weighed, and stored at −80° C. The assay was performed by natural thawing at room temperature and the concentration of ADD-16 in each tissue was determined using the LC-MS/MS method.

[2] = Plasma kinetics after single oral administration in SD rats (LC-MS/MS); type: in vivo, rat; settings: single oral 10 mg/kg
Procedure: Eight healthy male SD rats, weighing 200-220 g, were housed in a clean animal room maintained at constant temperature (23±2° C.) and humidity (55±10%) with a 12 h/12 h artificial light cycle with free access to food and water and conditioned for 3 days prior to the experiment. All rats were fasted from water for 12 h prior to the experiment, and after oral administration of an ADD-16 solution (10 mg/kg) to each rat, and blood was taken at the orbital site at 5, 10, 15, 30, 45, 60, 120, 240, 360, 720, 1440 min. The blood was immediately fed into heparinized centrifuge tubes at 4° C., 3000 rpm/min, centrifuged for 10 min, and the supernatant plasma was carefully aspirated and stored at −80° C. Assays were performed by natural thawing at room temperature and plasma sample pre-treatment procedures were followed to determine plasma concentrations in rats following a single dose using the established LC-MS/MS method.

GPR40 = assay: Insulin secretion in MIN6 cells with GPR40 inhibitor GW1100; type: cell-based, mouse; settings: 10 μmol/L GW1100 + 10 μmol/L ADD-16, 24 h
Procedure: MIN6 cells were seeded in 24-well plates and cultured as described in step 2.1 to a cell confluency of more than 80% and administrated in the following groups, with 12 replicates per group: (1) normal control group (Con): cultured with blank 1640 medium; (2) GW9508 group: 1 μmol/L GW9508 intervention for 24 h; (3) GW1100 group: 10 μmol/L GW1100 intervention for 24 h; (4) ADD-16 group (ADD): 10 μmol/L ADD-16 intervention for 24 h; (5) GW1100+GW9508 group: 10 μmol/L GW1100+1 μmol/L GW9508 intervention for 24 h; (6) GW1100+ADD-16 group: 10 μmol/L GW1100+10 μmol/LADD-16 intervention for 24 h. After the group administration, the medium was aspirated and washed 2 times with a KRB buffer without sugar, followed by the addition of the KRB buffer without sugar. After incubation at 37° C. for 30 min, the buffer was aspirated and each group was divided into two, i.e., 6 replicates for each group, and KRB buffers containing 2.8 mmol/L and 16.7 mmol/L glucose was added respectively. After incubation at 37° C. for 1 h, all the medium in the wells was aspirated and centrifuged at 2000 rmp/min for 20 min, and the supernatant was collected and stored at −20° C. The insulin content was measured for each group.

[3] = n = 6
ZDF rat islet tissue = assay: Western Blot of insulin signaling related molecules in ZDF rat islet tissue; type: in vivo; settings: compared to TD group, P<0.001, most pronounced at 10 mg/kg
STZ-induced T2DM rats = assay: Insulin tolerance test (ITT) in T2DM rats; type: in vivo, rat
Procedure: 150 male SD rats, housed in cages in a clean constant temperature (23±2° C.) and humidity (55±10%) animal house, were manually adjusted on a daily 12 h/12 h diurnal light cycle with free access to water. After 3 days of adaptive feeding, 150 rats were randomly divided into normal and model groups. The normal (Con, n=15) group of rats remained on raw chow and the model group (n=135) of rats were given high fat high sugar chow. All rats were fed twice daily and the amount of feed was adjusted as needed to ensure adequate feed. After 8 weeks of group feeding, the model group rats were given an intraperitoneal injection of 25 mg/kg STZ solution with a 12 h fast prior to injection. After injection, feeding was continued as in the original method, blood was taken from the tail vein at 72 h for blood glucose measurement, and rats with fasting blood glucose levels ≥11.1 mmol/L on different days were screened for successful artificial induction of T2DM and administered in groups for the next experiment. 135 rats with successful modeling were randomly divided into 9 groups: […] (2) 0.01 mg/kg ADD-16 administration group (ADD I, n=15): daily administration of 0.01 mg/kg ADD-16 solution by gavage; (3) 0.1 mg/kg ADD-16 administration group (ADD II, n=15): daily administration of a 0.1 mg/kg ADD-16 solution by gavage; (4) 1 mg/kg ADD-16 administration group (ADD III, n=15): daily administration of a 1 mg/kg ADD-16 solution by gavage; (5) 3 mg/kg ADD-16 administration group (ADD IV, n=15): daily administration of a 3 mg/kg ADD-16 solution by gavage; (6) 10 mg/kg ADD-16 administration group (ADD V, n=15): daily administration of a 10 mg/kg ADD-16 solution by gavage; (7) 50 mg/kg ADD-16 administration group (ADD VI, n=15): daily administration of a 50 mg/kg ADD-16 solution by gavage; […] (9) Sitagliptin control group (ST, n=15): daily administration of a 6 mg/kg sitagliptin solution by gavage. […] Relevant indicators of lipid metabolism were measured after the end of the study. […] After the 120 min blood glucose value determination was completed, the diet was resumed. In the test, the condition of the rats was observed, and when abnormalities occurred, the experiment was stopped in time and a glucose solution was given by gavage to prevent death due to hypoglycemia.

For `CC1(C)CC(=O)C2=C(C1)NC1=C(C(=O)CC(C)(C)C1)C2c1ccc(OCc2ccc(C(=O)O)cc2)c(Br)c1` [ADD-16], the “islet targeting (in words)” value [1] was “well-defined islet targeting”, the “tissue Cmax order” value ([1]; AUC 0-8 order the same) was “liver>islets>lung>kidney>heart>spleen>brain” and the “blood-brain barrier penetration (in words)” value ([1]; lowest concentration in brain tissue) was “does not readily penetrate the blood-brain barrier”. The CL/F ([2]; male, SD, rat, plasma, po, 10 mg/kg, plasma, n = 8, read-out: CLz/F (clearance) (converted)) was roughly 0.15 mL/min/kg, the Cmax ([2]; male, SD, rat, plasma, po, 10 mg/kg, plasma, n = 8, read-out: Cmax (plasma concentration maximum)) was roughly 395 ng/mL and the Vd/F ([2]; male, SD, rat, plasma, po, 10 mg/kg, plasma, n = 8, read-out: Vz/F (apparent volume of distribution)) was roughly 0.36 L/kg. It also gave a half-life ([2]; male, SD, rat, plasma, po, 10 mg/kg, plasma, n = 8, read-out: t1/2z (half-life) (converted)) of roughly 30.2 h, an AUC(0-inf) ([2]; male, SD, rat, plasma, n = 8) of 2420 ± 527 ng·h/mL and an AUC(0-t) ([2]; male, SD, rat, plasma, n = 8) of 1130 ± 35.7 ng·h/mL. It also gave a Tmax ([2]; male, SD, rat, plasma, n = 8) of 0.5 h, an MRT last ([2]; male, SD, rat, plasma, n = 8, read-out: MRT(0-t)) of 8.8 ± 0.4 h and an MRT inf ([2]; male, SD, rat, plasma, n = 8, read-out: MRT(0-∞)) of 37.5 ± 9.2 h. The “time of maximum blood concentration” value [2] was 30 min, the Cz ([2]; plasma, n = 8) was 29.8 ± 10.3 ng/mL and the “VRT(0-t)” value ([2]; plasma, n = 8) was 55.2 ± 3.0 h^2. For the same compound, the “VRT(0-∞)” value ([2]; plasma, n = 8) was 1908.2 ± 835.5 h^2, the “insulin secretion in GW1100-treated MIN6 cells (in words)” value (GPR40) was “increase insulin secretion in MIN6 cells treated with the GPR40 inhibitor GW1100” and the LD50 [3] was 123.2 µmol/L. The “expression of insulin signaling-related molecules, Western Blot (in words)” value (ZDF rat islet tissue) was “upregulate the expression of GPR40, PGC-1α, P-P38, P-EP300, PPARγ, P-AKT, PI3K, IRS1 and GLUT4”, the “decrease of ITT AUC compared to the TD group” value (“decrease of ITT AUC” for short) (STZ-induced T2DM rats; ADD IV group, 3 mg/kg daily by gavage) was 46.5% and the “decrease of ITT AUC” value (STZ-induced T2DM rats; ADD V group, 10 mg/kg daily by gavage) was 43.7%. The “decrease of ITT AUC” value (STZ-induced T2DM rats; ADD VI group, 50 mg/kg daily by gavage) was 45.2%.
